Reference: the supplement of paper PMC10307832

How the values were obtained:
Test in all cases: relative viability (nuclei count vs DMSO), 5 days (fraction); higher = more cells survive
EPLC-272H = test system: EPLC-272H
Procedure, shortened: (§1)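 Values are medians from duplicate plates. Each reflects relative viability, defined as the nuclei count of treated wells over that of vehicle wells. Lung cancer cell lines in 1536-well plates were pin-tool dosed one day after seeding with one drug alone or with a fixed anchor-drug dose plus five library-drug doses (not always all listed) in √10 steps, then fixed, stained and imaged at 4× after 5 days.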

NCI-H1666 = test system: NCI-H1666
Procedure, shortened: as §1

NCI-H1975 = test system: NCI-H1975
Procedure, shortened: as §1

HCC-15 = test system: HCC-15
Procedure, shortened: as §1

EMC-BAC-2 = test system: EMC-BAC-2
Procedure, shortened: as §1

NCI-H358 = test system: NCI-H358
Procedure, shortened: as §1

LXF-289 = test system: LXF-289
Procedure, shortened: as §1

NCI-H2023 = test system: NCI-H2023
Procedure, shortened: as §1

UMC-11 = test system: UMC-11
Procedure, shortened: as §1

COR-L 105 = test system: COR-L 105
Procedure, shortened: as §1

HCC-78 = test system: HCC-78
Procedure, shortened: as §1

NCI-H2126 = test system: NCI-H2126
Procedure, shortened: as §1

NCI-H441 = test system: NCI-H441
Procedure, shortened: as §1

ABC-1 = test system: ABC-1
Procedure, shortened: as §1

NCI-H2085 = test system: NCI-H2085
Procedure, shortened: as §1

NCI-H3122 = test system: NCI-H3122
Procedure, shortened: as §1

NCI-H322M = test system: NCI-H322M
Procedure, shortened: as §1

NCI-H1755 = test system: NCI-H1755
Procedure, shortened: as §1

CAL-12T = test system: CAL-12T
Procedure, shortened: as §1

NCI-H1915 = test system: NCI-H1915
Procedure, shortened: as §1

ChaGo-K-1 = test system: ChaGo-K-1
Procedure, shortened: as §1

HOP-62 = test system: HOP-62
Procedure, shortened: as §1

Q: What does the source list for `COc1cc2nccc(Oc3ccc(NC(=O)Nc4cc(C)on4)c(Cl)c3)c2cc1OC` [Tivozanib] + Cc1cc(Nc2cc(N3CCN(C)CC3)nc(Sc3ccc(NC(=O)C4CC4)cc3)n2)n[nH]1 [Tozasertib] (partner 0.1 µM)?
A: relative viability (EPLC-272H; first compound 0.005 µM): 0.195; relative viability (EPLC-272H; first compound 0.01581 µM): 0.255; relative viability (EPLC-272H; first compound 0.05 µM): 0.387; relative viability (EPLC-272H; first compound 0.1581 µM): 0.224; relative viability (EPLC-272H; first compound 0.5 µM): 0.275; relative viability (NCI-H1666; first compound 0.005 µM): 0.538; relative viability (NCI-H1666; first compound 0.01581 µM): 0.605; relative viability (NCI-H1666; first compound 0.05 µM): 0.668; relative viability (NCI-H1666; first compound 0.1581 µM): 0.628; relative viability (NCI-H1666; first compound 0.5 µM): 0.646; relative viability (NCI-H1975; first compound 0.005 µM): 0.676; relative viability (NCI-H1975; first compound 0.01581 µM): 0.739; relative viability (NCI-H1975; first compound 0.05 µM): 0.789; relative viability (NCI-H1975; first compound 0.1581 µM): 0.691; relative viability (NCI-H1975; first compound 0.5 µM): 0.567; relative viability (HCC-15; first compound 0.005 µM): 0.411; relative viability (HCC-15; first compound 0.01581 µM): 0.419; relative viability (HCC-15; first compound 0.05 µM): 0.496; relative viability (HCC-15; first compound 0.1581 µM): 0.415; relative viability (HCC-15; first compound 0.5 µM): 0.354; relative viability (EMC-BAC-2; first compound 0.005 µM): 0.255; relative viability (EMC-BAC-2; first compound 0.01581 µM): 0.3; relative viability (EMC-BAC-2; first compound 0.05 µM): 0.295; relative viability (EMC-BAC-2; first compound 0.1581 µM): 0.326; relative viability (EMC-BAC-2; first compound 0.5 µM): 0.266; relative viability (NCI-H358; first compound 0.005 µM): 0.0936; relative viability (NCI-H358; first compound 0.01581 µM): 0.101; relative viability (NCI-H358; first compound 0.05 µM): 0.102; relative viability (NCI-H358; first compound 0.1581 µM): 0.102; relative viability (NCI-H358; first compound 0.5 µM): 0.108; relative viability (LXF-289; first compound 0.005 µM): 0.173; relative viability (LXF-289; first compound 0.01581 µM): 0.201; relative viability (LXF-289; first compound 0.05 µM): 0.228; relative viability (LXF-289; first compound 0.1581 µM): 0.272; relative viability (LXF-289; first compound 0.5 µM): 0.23; relative viability (NCI-H2023; first compound 0.005 µM): 0.306; relative viability (NCI-H2023; first compound 0.01581 µM): 0.324; relative viability (NCI-H2023; first compound 0.05 µM): 0.405; relative viability (NCI-H2023; first compound 0.1581 µM): 0.4; relative viability (NCI-H2023; first compound 0.5 µM): 0.413; relative viability (UMC-11; first compound 0.005 µM): 0.208; relative viability (UMC-11; first compound 0.01581 µM): 0.2; relative viability (UMC-11; first compound 0.05 µM): 0.198; relative viability (UMC-11; first compound 0.5 µM): 0.211; relative viability (COR-L 105; first compound 0.005 µM): 0.366; relative viability (COR-L 105; first compound 0.01581 µM): 0.371; relative viability (COR-L 105; first compound 0.05 µM): 0.406; relative viability (COR-L 105; first compound 0.1581 µM): 0.374; relative viability (COR-L 105; first compound 0.5 µM): 0.493; relative viability (HCC-78; first compound 0.005 µM): 0.324; relative viability (HCC-78; first compound 0.01581 µM): 0.472; relative viability (HCC-78; first compound 0.05 µM): 0.347; relative viability (HCC-78; first compound 0.1581 µM): 0.501; relative viability (HCC-78; first compound 0.5 µM): 0.328; relative viability (NCI-H2126; first compound 0.005 µM): 0.804; relative viability (NCI-H2126; first compound 0.01581 µM): 0.846; relative viability (NCI-H2126; first compound 0.05 µM): 0.915; relative viability (NCI-H2126; first compound 0.1581 µM): 0.667; relative viability (NCI-H2126; first compound 0.5 µM): 0.857; relative viability (NCI-H441; first compound 0.005 µM): 0.682; relative viability (NCI-H441; first compound 0.01581 µM): 0.635; relative viability (NCI-H441; first compound 0.05 µM): 0.596; relative viability (NCI-H441; first compound 0.1581 µM): 0.768; relative viability (NCI-H441; first compound 0.5 µM): 0.474; relative viability (ABC-1; first compound 0.005 µM): 0.167; relative viability (ABC-1; first compound 0.01581 µM): 0.185; relative viability (ABC-1; first compound 0.05 µM): 0.188; relative viability (ABC-1; first compound 0.1581 µM): 0.159; relative viability (ABC-1; first compound 0.5 µM): 0.168; relative viability (NCI-H2085; first compound 0.005 µM): 0.806; relative viability (NCI-H2085; first compound 0.01581 µM): 0.699; relative viability (NCI-H2085; first compound 0.05 µM): 0.905; relative viability (NCI-H2085; first compound 0.1581 µM): 0.985; relative viability (NCI-H2085; first compound 0.5 µM): 0.812; relative viability (NCI-H3122; first compound 0.005 µM): 0.418; relative viability (NCI-H3122; first compound 0.01581 µM): 0.428; relative viability (NCI-H3122; first compound 0.05 µM): 0.468; relative viability (NCI-H3122; first compound 0.1581 µM): 0.586; relative viability (NCI-H3122; first compound 0.5 µM): 0.253; relative viability (NCI-H322M; first compound 0.005 µM): 0.455; relative viability (NCI-H322M; first compound 0.01581 µM): 0.48; relative viability (NCI-H322M; first compound 0.05 µM): 0.518; relative viability (NCI-H322M; first compound 0.1581 µM): 0.395; relative viability (NCI-H322M; first compound 0.5 µM): 0.479; relative viability (NCI-H1755; first compound 0.005 µM): 0.565; relative viability (NCI-H1755; first compound 0.01581 µM): 0.581; relative viability (NCI-H1755; first compound 0.05 µM): 0.588; relative viability (NCI-H1755; first compound 0.1581 µM): 0.666; relative viability (NCI-H1755; first compound 0.5 µM): 0.531; relative viability (CAL-12T; first compound 0.005 µM): 0.281; relative viability (CAL-12T; first compound 0.01581 µM): 0.314; relative viability (CAL-12T; first compound 0.05 µM): 0.373; relative viability (CAL-12T; first compound 0.1581 µM): 0.277; relative viability (CAL-12T; first compound 0.5 µM): 0.299; relative viability (NCI-H1915; first compound 0.005 µM): 0.4; relative viability (NCI-H1915; first compound 0.01581 µM): 0.439; relative viability (NCI-H1915; first compound 0.05 µM): 0.413; relative viability (NCI-H1915; first compound 0.1581 µM): 0.511; relative viability (NCI-H1915; first compound 0.5 µM): 0.5; relative viability (ChaGo-K-1; first compound 0.005 µM): 0.226; relative viability (ChaGo-K-1; first compound 0.01581 µM): 0.247; relative viability (ChaGo-K-1; first compound 0.05 µM): 0.216; relative viability (ChaGo-K-1; first compound 0.1581 µM): 0.256; relative viability (ChaGo-K-1; first compound 0.5 µM): 0.186; relative viability (HOP-62; first compound 0.005 µM): 0.349; relative viability (HOP-62; first compound 0.01581 µM): 0.384; relative viability (HOP-62; first compound 0.05 µM): 0.422; relative viability (HOP-62; first compound 0.1581 µM): 0.391; relative viability (HOP-62; first compound 0.5 µM): 0.362
